# Test results reported in PubChem BioAssay AID270 (DTP/NCI, 2004).
# Several values for one entry are separate records, joined by “and”; a condition that tells them apart may be missing. Equal entries are not always repeated. Inconclusive results are not listed.
# Test system: BDF1 mice, s.c. Lewis lung carcinoma, T/C %
# Assay: NCI In Vivo Anticancer Drug Screen. Data for tumor model Lewis Lung Carcinoma (subcutaneous) in B6D2F1 (BDF1) mice
# In short: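 Transplanted tumors grown in mice; compound vs vehicle dosing; endpoint survival or tumor size; ratio T/C.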
# [1] = endpoint: mean tumor weight, dose: 25.0 mg/kg/injection, schedule: Q01DX011 (ip), vehicle: saline, higher = larger tumour
# [2] = endpoint: mean tumor weight, dose: 50.0 mg/kg/injection, schedule: Q01DX011 (ip), vehicle: saline, higher = larger tumour
# [3] = endpoint: mean tumor weight, dose: 12.5 mg/kg/injection, schedule: Q01DX011 (ip), vehicle: saline, higher = larger tumour
# [4] = endpoint: median survival time, dose: 0.25 mg/kg/injection, schedule: Q01DX009 (ip), vehicle: Klucel (hydroxypropylcellulose) (HPC), higher = longer survival
# [5] = endpoint: median survival time, dose: 0.5 mg/kg/injection, schedule: Q01DX009 (ip), vehicle: Klucel (hydroxypropylcellulose) (HPC), higher = longer survival
# [6] = endpoint: median survival time, dose: 1.0 mg/kg/injection, schedule: Q01DX009 (ip), vehicle: Klucel (hydroxypropylcellulose) (HPC), higher = longer survival
# [7] = endpoint: median survival time, dose: 2.0 mg/kg/injection, schedule: Q01DX009 (ip), vehicle: Klucel (hydroxypropylcellulose) (HPC), higher = longer survival
smiles,measurement,setting,value
C[C@]12CCC(=O)C=C1CC[C@@H]1[C@@H]2[C@@H](O)C[C@@]2(C)[C@H]1CC[C@]2(O)C(=O)CF,T/C,"endpoint: mean tumor weight, dose: 3.13 mg/kg/injection, schedule: Q01DX011 (sc), vehicle: steriod suspending solution, higher = larger tumour",70 % of control
same,T/C,"endpoint: mean tumor weight, dose: 6.25 mg/kg/injection, schedule: Q01DX011 (sc), vehicle: steriod suspending solution, higher = larger tumour",68 % of control
same,T/C,"endpoint: mean tumor weight, dose: 12.5 mg/kg/injection, schedule: Q01DX011 (sc), vehicle: steriod suspending solution, higher = larger tumour",65 % of control
same,T/C,"endpoint: mean tumor weight, dose: 25.0 mg/kg/injection, schedule: Q01DX011 (sc), vehicle: steriod suspending solution, higher = larger tumour",33 % of control
O=c1n(CCCl)c(=O)n(CCCl)c(=O)n1CCCl,T/C,"endpoint: mean tumor weight, dose: 25.0 mg/kg/injection, schedule: Q01DX011 (ip), vehicle: other, higher = larger tumour",121 % of control
same,T/C,"endpoint: mean tumor weight, dose: 50.0 mg/kg/injection, schedule: Q01DX011 (ip), vehicle: other, higher = larger tumour",116 % of control
same,T/C,"endpoint: mean tumor weight, dose: 100.0 mg/kg/injection, schedule: Q01DX011 (ip), vehicle: other, higher = larger tumour",65 % of control
same,T/C,"endpoint: mean tumor weight, dose: 200.0 mg/kg/injection, schedule: Q01DX011 (ip), vehicle: other, higher = larger tumour",113 % of control
same,T/C,"endpoint: mean tumor weight, dose: 400.0 mg/kg/injection, schedule: Q01DX011 (ip), vehicle: other, higher = larger tumour",108 % of control
Nc1ccc(N=Nc2ccccc2)c(N)c1,T/C,"endpoint: median survival time, dose: 2.25 mg/kg/injection, schedule: Q01DX009 (ip), vehicle: Klucel (hydroxypropylcellulose) (HPC), higher = longer survival",109 % of control
same,T/C,"endpoint: median survival time, dose: 4.5 mg/kg/injection, schedule: Q01DX009 (ip), vehicle: Klucel (hydroxypropylcellulose) (HPC), higher = longer survival",102 % of control
same,T/C,"endpoint: median survival time, dose: 9.0 mg/kg/injection, schedule: Q01DX009 (ip), vehicle: Klucel (hydroxypropylcellulose) (HPC), higher = longer survival",106 % of control
same,T/C,"endpoint: median survival time, dose: 18.0 mg/kg/injection, schedule: Q01DX009 (ip), vehicle: Klucel (hydroxypropylcellulose) (HPC), higher = longer survival",101 % of control
same,T/C,"endpoint: median survival time, dose: 75.0 mg/kg/injection, schedule: Q01DX009 (ip), vehicle: Klucel (hydroxypropylcellulose) (HPC), higher = longer survival",99 % of control
same,T/C,"endpoint: median survival time, dose: 200.0 mg/kg/injection, schedule: Q01DX009 (ip), vehicle: Klucel (hydroxypropylcellulose) (HPC), higher = longer survival",97 % of control
c1ccc2ncccc2c1,T/C,[1],81 % of control
same,T/C,[2],49 % of control
CCc1ccccc1N1CCN(C(=O)c2cc(OC)c(OC)c(OC)c2)CC1,T/C,"endpoint: mean tumor weight, dose: 25.0 mg/kg/injection, schedule: Q01DX011 (ip), vehicle: carboxymethylcellulose (CMC), higher = larger tumour",46 % of control and 48 % of control
CCCCn1cnc2c(=S)nc[nH]c21,T/C,"endpoint: mean tumor weight, dose: 15.0 mg/kg/injection, schedule: Q01DX011 (ip), vehicle: water, higher = larger tumour",49 % of control
same,T/C,"endpoint: mean tumor weight, dose: 30.0 mg/kg/injection, schedule: Q01DX011 (ip), vehicle: water, higher = larger tumour",60 % of control
same,T/C,"endpoint: mean tumor weight, dose: 60.0 mg/kg/injection, schedule: Q01DX011 (ip), vehicle: water, higher = larger tumour",53 % of control
C=CCn1c(=O)n(CC=C)c(=O)n(CC=C)c1=O,T/C,"endpoint: mean tumor weight, dose: 15.0 mg/kg/injection, schedule: Q01DX011 (ip), vehicle: carboxymethylcellulose (CMC), higher = larger tumour",82 % of control
same,T/C,"endpoint: mean tumor weight, dose: 120.0 mg/kg/injection, schedule: Q01DX011 (ip), vehicle: carboxymethylcellulose (CMC), higher = larger tumour",112 % of control
same,T/C,"endpoint: mean tumor weight, dose: 240.0 mg/kg/injection, schedule: Q01DX011 (ip), vehicle: carboxymethylcellulose (CMC), higher = larger tumour",67 % of control
COc1cc(NS(C)(=O)=O)ccc1Nc1c2cccc(C)c2nc2c(C)cccc12,T/C,"endpoint: median survival time, dose: 6.25 mg/kg/injection, schedule: Q01DX011 (ip), vehicle: saline, higher = longer survival",88 % of control
same,T/C,"endpoint: median survival time, dose: 12.5 mg/kg/injection, schedule: Q01DX011 (ip), vehicle: saline, higher = longer survival",113 % of control
same,T/C,"endpoint: median tumor weight (est.), dose: 25.0 mg/kg/injection, schedule: Q01DX011 (ip), vehicle: saline, higher = larger tumour",579 % of control
CC(/C=N/N=C(N)N)=N/N=C(N)N,T/C,[3],96 % of control
same,T/C,[1],69 % of control
same,T/C,[2],94 % of control
Nc1nc(N)c2nc(CN(CCO)c3ccc(C(=O)NC(CCC(=O)O)C(=O)O)cc3)cnc2n1 (centres undefined),T/C,[4],96 % of control
same,T/C,[5],107 % of control
same,T/C,[6],108 % of control
same,T/C,[7],89 % of control
C=C1C(C)C2C(Cc3ccccc3)NC(=O)C23C(OC(C)=O)C=CC(C)(O)C(=O)C(C)C/C=C/C3C1O (centres undefined),T/C,"endpoint: median survival time, dose: 0.31 mg/kg/injection, schedule: Q01DX009 (ip), vehicle: Klucel (hydroxypropylcellulose) (HPC), higher = longer survival",121 % of control
same,T/C,"endpoint: median survival time, dose: 0.62 mg/kg/injection, schedule: Q01DX009 (ip), vehicle: Klucel (hydroxypropylcellulose) (HPC), higher = longer survival",124 % of control
same,T/C,"endpoint: median survival time, dose: 1.25 mg/kg/injection, schedule: Q01DX009 (ip), vehicle: Klucel (hydroxypropylcellulose) (HPC), higher = longer survival",110 % of control
same,T/C,"endpoint: median survival time, dose: 2.5 mg/kg/injection, schedule: Q01DX009 (ip), vehicle: Klucel (hydroxypropylcellulose) (HPC), higher = longer survival",118 % of control
same,T/C,"endpoint: median survival time, dose: 5.0 mg/kg/injection, schedule: Q01DX009 (ip), vehicle: Klucel (hydroxypropylcellulose) (HPC), higher = longer survival",109 % of control
CC[C@]1(O)C[C@H]2CN(CCc3c([nH]c4ccccc34)[C@@](C(=O)OC)(c3cc4c(cc3OC)N(C)[C@H]3[C@@](O)(C(=O)OC)[C@H](OC(C)=O)[C@]5(CC)C=CCN6CC[C@]43[C@@H]65)C2)C1,T/C,"endpoint: mean tumor weight, dose: 0.12 mg/kg/injection, schedule: Q01DX011 (ip), vehicle: saline, higher = larger tumour",109 % of control
same,T/C,"endpoint: mean tumor weight, dose: 0.24 mg/kg/injection, schedule: Q01DX011 (ip), vehicle: saline, higher = larger tumour",94 % of control
same,T/C,"endpoint: mean tumor weight, dose: 0.36 mg/kg/injection, schedule: Q01DX011 (ip), vehicle: saline, higher = larger tumour",84 % of control
same,T/C,"endpoint: mean tumor weight, dose: 0.54 mg/kg/injection, schedule: Q01DX011 (ip), vehicle: saline, higher = larger tumour",99 % of control
same,T/C,"endpoint: mean tumor weight, dose: 0.8 mg/kg/injection, schedule: Q01DX011 (ip), vehicle: saline, higher = larger tumour",60 % of control
same,T/C,"endpoint: mean tumor weight, dose: 0.81 mg/kg/injection, schedule: Q01DX011 (ip), vehicle: saline, higher = larger tumour",111 % of control
same,T/C,"endpoint: mean tumor weight, dose: 125.0 micrograms/kg/injection, schedule: Q01DX011 (ip), vehicle: saline, higher = larger tumour",61 % of control
same,T/C,"endpoint: mean tumor weight, dose: 250.0 micrograms/kg/injection, schedule: Q01DX011 (ip), vehicle: saline, higher = larger tumour",53 % of control
same,T/C,"endpoint: median survival time, dose: 0.06 mg/kg/injection, schedule: Q01DX009 (ip), vehicle: saline, higher = longer survival",101 % of control and 118 % of control
same,T/C,"endpoint: median survival time, dose: 0.12 mg/kg/injection, schedule: Q01DX009 (ip), vehicle: saline, higher = longer survival",88 % of control
same,T/C,"endpoint: median survival time, dose: 0.25 mg/kg/injection, schedule: Q01DX009 (ip), vehicle: saline, higher = longer survival",96 % of control
Nc1nc2[nH]c(=O)cnc2c(=O)[nH]1,T/C,"endpoint: median survival time, dose: 12.5 mg/kg/injection, schedule: Q01DX009 (ip), vehicle: saline with Tween-80, higher = longer survival",97 % of control
same,T/C,"endpoint: median survival time, dose: 50.0 mg/kg/injection, schedule: Q01DX009 (ip), vehicle: saline with Tween-80, higher = longer survival",99 % of control
same,T/C,"endpoint: median survival time, dose: 100.0 mg/kg/injection, schedule: Q01DX009 (ip), vehicle: saline, higher = longer survival",104 % of control
same,T/C,"endpoint: median survival time, dose: 200.0 mg/kg/injection, schedule: Q01DX009 (ip), vehicle: saline, higher = longer survival",104 % of control
same,T/C,"endpoint: median survival time, dose: 400.0 mg/kg/injection, schedule: Q01DX009 (ip), vehicle: saline, higher = longer survival",110 % of control
O=CN1CCOCC1,T/C,"endpoint: mean tumor weight, dose: 37.0 mg/kg/injection, schedule: Q01DX011 (ip), vehicle: saline, higher = larger tumour",90 % of control
same,T/C,"endpoint: mean tumor weight, dose: 55.0 mg/kg/injection, schedule: Q01DX011 (ip), vehicle: saline, higher = larger tumour",152 % of control
same,T/C,"endpoint: mean tumor weight, dose: 83.0 mg/kg/injection, schedule: Q01DX011 (ip), vehicle: saline, higher = larger tumour",103 % of control
same,T/C,"endpoint: mean tumor weight, dose: 250.0 mg/kg/injection, schedule: Q01DX011 (ip), vehicle: saline, higher = larger tumour",81 % of control
same,T/C,"endpoint: mean tumor weight, dose: 500.0 mg/kg/injection, schedule: Q01DX011 (ip), vehicle: saline, higher = larger tumour",100 % of control
same,T/C,"endpoint: mean tumor weight, dose: 1000.0 mg/kg/injection, schedule: Q01DX011 (ip), vehicle: saline, higher = larger tumour",92 % of control
OC1CC2CCC(C1)N2CCCN1c2ccccc2Sc2ccc(Cl)cc21 (centres undefined),T/C,"endpoint: median survival time, dose: 12.5 mg/kg/injection, schedule: Q01DX009 (ip), vehicle: Klucel (hydroxypropylcellulose) (HPC), higher = longer survival",95 % of control
same,T/C,"endpoint: median survival time, dose: 25.0 mg/kg/injection, schedule: Q01DX009 (ip), vehicle: Klucel (hydroxypropylcellulose) (HPC), higher = longer survival",96 % of control
same,T/C,"endpoint: median survival time, dose: 50.0 mg/kg/injection, schedule: Q01DX009 (ip), vehicle: Klucel (hydroxypropylcellulose) (HPC), higher = longer survival",99 % of control
O=c1[nH]c(=O)c2[nH]cnc2[nH]1,T/C,[3],97 % of control
same,T/C,[1],73 % of control
same,T/C,[2],75 % of control and 76 % of control
same,T/C,"endpoint: mean tumor weight, dose: 100.0 mg/kg/injection, schedule: Q01DX011 (ip), vehicle: saline, higher = larger tumour",118 % of control
same,T/C,"endpoint: mean tumor weight, dose: 200.0 mg/kg/injection, schedule: Q01DX011 (ip), vehicle: saline, higher = larger tumour",109 % of control
COc1ccc2cc3[n+](cc2c1OC)CCc1cc2c(cc1-3)OCO2,T/C,"endpoint: mean tumor weight, dose: 12.0 mg/kg/injection, schedule: Q01DX011 (ip), vehicle: saline, higher = larger tumour",96 % of control
same,T/C,"endpoint: median survival time, dose: 0.12 mg/kg/injection, schedule: Q01DX009 (ip), vehicle: Klucel (hydroxypropylcellulose) (HPC), higher = longer survival",102 % of control
same,T/C,[4],107 % of control
same,T/C,[5],112 % of control
same,T/C,[6],110 % of control
same,T/C,[7],95 % of control
same,T/C,"endpoint: median survival time, dose: 4.0 mg/kg/injection, schedule: Q01DX009 (ip), vehicle: Klucel (hydroxypropylcellulose) (HPC), higher = longer survival",100 % of control
same,T/C,"endpoint: median survival time, dose: 8.0 mg/kg/injection, schedule: Q01DX009 (ip), vehicle: Klucel (hydroxypropylcellulose) (HPC), higher = longer survival",92 % of control
COc1cc([C@@H]2c3cc4c(cc3[C@H](O)[C@H]3COC(=O)[C@H]23)OCO4)cc(OC)c1OC,T/C,"endpoint: mean tumor weight, dose: 1.0 mg/kg/injection, schedule: Q01DX011 (ip), vehicle: carboxymethylcellulose (CMC), higher = larger tumour",84 % of control
same,T/C,"endpoint: mean tumor weight, dose: 2.0 mg/kg/injection, schedule: Q01DX011 (ip), vehicle: carboxymethylcellulose (CMC), higher = larger tumour",36 % of control
